Reference: patent US20230000869A1, “NOVEL ALK2 INHIBITORS AND METHODS FOR INHIBITING BMP SIGNALING” (The Brigham and Women's Hospital, Inc., priority 2017, published 2023)

Tests used:
[1] = molecular target: T1, ALK4 (Homo sapiens, UniProt P36896); assay: TR-FRET enzymatic assay, ALK4 kinase, 1536-well; assay type: biochemical; conditions: for IC50: 10 nM ALK, Ulight topo II substrate 50 nM, ATP 10 uM (Table 1); for ALK4 Span: span of the concentration-response curve
T1 construct: purchased Life technology (Fredrick, Md.) and/or CARNA BIOSCIENCES Inc. (Kobe, Japan)
T1 sequence (P36896 24-505): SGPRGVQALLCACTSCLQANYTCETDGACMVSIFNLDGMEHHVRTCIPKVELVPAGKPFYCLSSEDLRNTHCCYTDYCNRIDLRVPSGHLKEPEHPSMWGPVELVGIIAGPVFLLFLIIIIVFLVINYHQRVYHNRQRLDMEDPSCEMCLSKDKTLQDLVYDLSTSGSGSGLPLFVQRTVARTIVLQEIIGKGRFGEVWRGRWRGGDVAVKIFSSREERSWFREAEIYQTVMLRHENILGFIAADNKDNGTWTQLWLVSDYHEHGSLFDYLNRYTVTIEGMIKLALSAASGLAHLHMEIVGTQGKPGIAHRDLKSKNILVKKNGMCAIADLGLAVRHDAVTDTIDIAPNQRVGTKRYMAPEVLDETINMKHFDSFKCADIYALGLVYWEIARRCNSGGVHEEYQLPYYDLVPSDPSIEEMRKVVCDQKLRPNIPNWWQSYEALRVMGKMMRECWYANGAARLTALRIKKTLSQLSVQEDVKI
Excerpt: We have developed six ALK kinase enzyme assays for determination of compound activities on ALK1, ALK2, ALK3, ALK4, ALK5 and ALK6. For the assay development, we had tested a number of substrates and assay conditions that led to the final optimized assay protocols with good assay windows with signal to basal (S/B) ratios above 20 fold for all six ALK assays (FIG. 1). In our knowledge, these ALK kinase assays have not been reported elsewhere.
ALK1 and ALK2-ALK6 were obtained from Life technology (Fredrick, Md.) and CARNA BIOSCIENCES Inc. (Kobe, Japan). Ulight-DNA Topoisomerase 2 alpha (Thr-1342) peptide and Europium anti-phospho-DNA Topoisomerase 2 alpha (Thr-1342) antibody was from Perkin Elmer Inc. The kinase buffer was composed of 50 mM HEPES pH7.0, 10 mM MgCl2, 3 mM MnCl2, 0.005% Tween-20 and 2 mM DTT. The compound plates and the white solid MB assay plates were purchased from Greiner Bio-one (Monroe, N.C.).
The binding of Eu-anti-phospho-peptide antibody to the phosphorylated Ulight peptide substrate bring both Eu donor and Ulight acceptor dye into close proximity. Upon excitation at 320-340 nm, the emission energy from Eu donor is transferred to Ulight acceptor dye that will generate light at 665 nm. The intensity light emission is proportional to the level of the peptide phosphorylation by ALKs. The assay was optimized and performed in 1536 plate (Table 1). Briefly, the ALKs enzymatic assay was initiated by dispense 2.5 ul enzyme with a final concentration at 10 nM prepared in 1× kinase reaction buffer. The assay plate was then added with compounds with the Pintool station (23 nl/well compound dilutions in DMSO solution) that was followed by incubation at room temperature for 10 minutes. Then 2.5 ul/well substrate was added in which 50 nM peptide substrate mixed with 10 uM, 100 uM or 1 mM ATP (final concentration). The assay plate was incubated at room temperature for 60 minutes and the kinase reaction was stopped by addition of 5 ul/well of 4 nM Eu-anti-phospho-peptide antibody with 12 mM EDTA prepared in 1× detection buffer. The assay plate was measured in an EnVision plate reader (Perkin Elmer) in the TR-FRET detection mode (excitation at 340 nm and emission at 665 nm).

[2] = molecular target: ACVR2A (Homo sapiens, UniProt P27037); assay: LanthaScreen Eu kinase binding assay, BMP type II receptor ACVR2A; conditions: 10-point titration from 10 μM, 3-fold serial dilution, Life Technologies
ACVR2A, sequence (P27037 20-513): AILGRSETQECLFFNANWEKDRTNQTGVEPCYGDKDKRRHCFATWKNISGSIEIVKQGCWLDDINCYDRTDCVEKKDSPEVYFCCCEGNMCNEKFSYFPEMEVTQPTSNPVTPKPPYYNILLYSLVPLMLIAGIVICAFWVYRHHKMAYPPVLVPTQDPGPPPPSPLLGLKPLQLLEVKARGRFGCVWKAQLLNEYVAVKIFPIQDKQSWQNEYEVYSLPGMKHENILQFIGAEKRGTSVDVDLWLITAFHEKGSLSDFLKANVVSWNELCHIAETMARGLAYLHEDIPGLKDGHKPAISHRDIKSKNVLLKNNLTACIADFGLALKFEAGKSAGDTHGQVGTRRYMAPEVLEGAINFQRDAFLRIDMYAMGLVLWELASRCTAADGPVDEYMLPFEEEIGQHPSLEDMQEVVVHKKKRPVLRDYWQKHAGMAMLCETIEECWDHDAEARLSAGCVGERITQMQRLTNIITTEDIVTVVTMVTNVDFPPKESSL
Excerpt: For the detailed description of LanthaScreen™ Eu kinase binding assay condition, please see: https://www.thermofisher.com/us/en/home/industrial/pharma-biopharma/drug-discovery-development/target-and-lead-identification-and-validation/kinasebiology/kinase-activity-assays/lanthascreentm-eu-kinas e-binding-assay/lanthascreen-eu-kinase-binding-assay-validation-table.html.

[3] = tested on: BMP6; assay: Cell assay HTRF BMP6 (Table 15); assay type: cell-based
[4] = tested on: TGFb; assay: Cell assay HTRF TGFb (Table 15); assay type: cell-based; conditions: read-out: HRTF TGFb (IC50)
[5] = molecular target: ACVR2B (Homo sapiens, UniProt Q13705); assay: LanthaScreen Eu kinase binding assay, BMP type II receptor ACVR2B; conditions: 10-point titration from 10 μM, 3-fold serial dilution, Life Technologies
ACVR2B, sequence (Q13705 19-512): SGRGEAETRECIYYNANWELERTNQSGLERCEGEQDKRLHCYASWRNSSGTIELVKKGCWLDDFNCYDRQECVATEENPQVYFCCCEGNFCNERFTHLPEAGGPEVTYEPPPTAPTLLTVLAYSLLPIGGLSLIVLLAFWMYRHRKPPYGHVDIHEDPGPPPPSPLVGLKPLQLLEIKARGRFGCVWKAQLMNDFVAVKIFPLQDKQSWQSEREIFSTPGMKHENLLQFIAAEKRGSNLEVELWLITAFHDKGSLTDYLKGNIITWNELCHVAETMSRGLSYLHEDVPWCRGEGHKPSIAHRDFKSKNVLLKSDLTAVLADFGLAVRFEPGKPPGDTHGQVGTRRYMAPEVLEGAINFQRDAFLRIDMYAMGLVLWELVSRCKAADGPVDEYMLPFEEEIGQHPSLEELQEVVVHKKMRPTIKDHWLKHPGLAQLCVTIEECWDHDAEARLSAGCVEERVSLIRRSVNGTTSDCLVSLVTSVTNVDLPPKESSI
Description: Kinase Profiling BMP Type II Receptor Experimental Procedure (Life Technologies, 5225 Vernona Road, Madison, Wis. 53744)
The measurement of each compound's half maximal inhibitory concentration (IC50) for BMP type II receptors (ACVR2A, ACVR2B, BMPR2 and TGFbR2) was carried out at Life Technologies by using its 10-point titration (starting concentration: 10 μM with 3-fold serial dilution) LanthaScreen™ biochemical kinase assay protocol. For the detailed description of LanthaScreen™ Eu kinase binding assay condition, please see: https://www.thermofisher.com/us/en/home/industrial/pharma-biopharma/drug-discovery-development/target-and-lead-identification-and-validation/kinasebiology/kinase-activity-assays/lanthascreentm-eu-kinas e-binding-assay/lanthascreen-eu-kinase-binding-assay-validation-table.html.

Row | Structure (SMILES) | IC50 [1] [nM] | ALK4 Span [1] | IC50 [2] [µM] | IC50 [3] [µM] | IC50 [4] [µM] | IC50 [5] [µM]
1 | COc1cc2c(-c3cnn4cc(N5CCC(N6CCN(C)CC6)CC5)cnc34)ccnc2cc1F [Compound 15, 7-fluoro-6-methoxy-4-(6-(4-(4-methylpiperazin-1-yl)piperidin-1-yl)pyrazolo[1,5-a]pyrimidin-3-yl)quinoline] | 4210 | 101 | – | – | – | –
2 | Cc1cc(-c2cnn3cc(N4CCC(N5CCN(C)CC5)CC4)cnc23)c2ccccc2n1 [Compound 8] | 994 | 96.6 | 1.28 | 0.27 | 2.04 | 0.745
3 | c1ccc2c(-c3cnn4cc(-c5ccc(N6CCNCC6)cc5)cnc34)ccnc2c1 [TRND00262637-13] | – | – | 0.0145 | 0.069 | 9.29 | 0.02

Second part, led by results:

Row | IC50 [1] [nM] | ALK4 Span [1] | Structure (SMILES) | IC50 [2] [µM] | IC50 [3] [µM] | IC50 [4] [µM] | IC50 [5] [µM]
4 | 2030 | 101.1 | Cc1cc(-c2cnn3cc(N4CCC(N5CCNCC5)CC4)cnc23)c2ccccc2n1 [Compound 34] | – | – | – | –
5 | 1030 | 100.0 | Cc1cc(-c2cnn3cc(N4CCC(N5CCOCC5)CC4)cnc23)c2ccccc2n1 [Compound 11] | – | – | – | –
